Source: patent US7750154B2, “Amide derivatives” (AstraZeneca AB, priority 2003, dated 2010)

What was measured:
p38α = target: T1, p38α (Homo sapiens, UniProt Q16539); test: In vitro enzyme assay, p38α kinase; assay type: biochemical
T1 construct: c-myc (N); 6His (N); made in house; host or cells: E. coli (PET vectors)

[1] = tested on: TNFα production in human whole blood; test: Human whole blood assay, LPS-stimulated TNFα production; assay type: cell-based; conditions: inhibition of TNFα production
Method: The ability of a test compound to inhibit TNFα production was also assessed in a human whole blood assay. Human whole blood secretes TNFα when stimulated with LPS. […] Plates were incubated for 30 minutes at 37° C. (humidified incubator), prior to addition of 20 μl LPS (final concentration 10 μg/ml). Culture medium was added to control wells. Six “LPS alone” and six “medium alone” controls were included on each plate. A known TNFα synthesis/secretion inhibitor was included in each test. Plates were incubated for 6 hours at 37° C. (humidified incubator). Plates were centrifuged (2000 rpm for 10 minutes) and 80 μl plasma removed and stored at −80° C. (Corning 3799 plates). TNFα levels were measured by ELISA using paired antibodies from R&D Systems (catalogue nos. MAB610 and BAF210).

T1 sequence (Q16539 whole entry): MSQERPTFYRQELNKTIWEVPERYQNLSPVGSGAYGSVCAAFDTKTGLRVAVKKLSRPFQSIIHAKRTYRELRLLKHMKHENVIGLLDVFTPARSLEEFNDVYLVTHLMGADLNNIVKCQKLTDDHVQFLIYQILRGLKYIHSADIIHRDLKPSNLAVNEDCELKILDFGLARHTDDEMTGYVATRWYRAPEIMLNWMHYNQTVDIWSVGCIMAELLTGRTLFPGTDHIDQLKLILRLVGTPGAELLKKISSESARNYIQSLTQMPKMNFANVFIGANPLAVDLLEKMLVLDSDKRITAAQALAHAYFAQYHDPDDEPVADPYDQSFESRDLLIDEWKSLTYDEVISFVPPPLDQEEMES

SMILES: Cc1ccc(C(=O)NC2CC2)cc1-n1cnc2ccc(OCCN(C)C)cc2c1=O [Example 24, N-Cyclopropyl-3-[6-[2-(dimethylamino)ethoxy]-4-oxoquinazolin-3(4H)-yl]-4-methylbenzamide]
- IC50 (p38α): 19 nM
- IC50 [1]: 17 nM

SMILES: Cc1ccc(NC(=O)c2cc(F)cc(F)c2)cc1-n1cnc2ccc(N3CCN(C)CC3)cc2c1=O [Comparator Compound B, 3-[5-(3,5-difluorobenzamido)-2-methylphenyl]-6-(4-methylpiperazin-1-yl)-3,4-dihydroquinazolin-4-one, reference compound]
- IC50 (p38α): 41 nM
- IC50 [1]: 3850 nM

SMILES: Cc1ccc(C(=O)NC2(C)CC2)cc1-n1cnc2ccc(N3CCN(C)CC3)cc2c1=O [6 (a), 4-methyl-N-(1-methylcyclopropyl)-3-[6-(4-methylpiperazin-1-yl)-4-oxoquinazolin-3(4H)-yl]benzamide]
- IC50 (p38α): 81 nM
- IC50 [1]: 351 nM

SMILES: Cc1ccc(NC(=O)c2ccnc(Cl)c2)cc1-n1cnc2ccc(N3CCN(C)CC3)cc2c1=O [Comparator Compound A, 3-[5-(2-chloropyrid-4-ylcarbonylamino)-2-methylphenyl]-6-(4-methylpiperazin-1-yl)-3,4-dihydroquinazolin-4-one, reference compound]
- IC50 (p38α): 277 nM
- IC50 [1]: 3710 nM

SMILES: CCCN1CCCN(c2ccc3ncn(-c4cc(C(=O)NC5CC5)ccc4C)c(=O)c3c2)CC1 [Example 7, N-cyclopropyl-4-methyl-3-[4-oxo-6-(4-propyl-1,4-diazepan-1-yl)quinazolin-3(4H)-yl]benzamide]
- IC50 (p38α): 8 nM
- IC50 [1]: 34 nM
